Entries after “also recorded” stand apart in the source; their conditions may differ. Read-outs that look alike come from different tables or passages of the source. One block for each compound: values may come before it.
Columns and labels:
T cells = test: Toxicity towards the T cells in the expansion assay; type: cell-based, human
K562 cells [1] = test: Vγ9Vδ2 T cell mediated lysis of K562 cells; details: for Fold difference from salt, lysis: 2 hour treatment/4 hour co-culture
K562 cells [2] = test: K562 proliferation; type: cell-based, human
Vγ9Vδ2 T cells [3] = test: Expansion of Vγ9Vδ2 T cells from peripheral blood; type: cell-based, human; details: for Stimulation of Vγ9Vδ2 T cell proliferation: 0.1 µM, CD3+/γδ TCR+ population; for Fold difference from salt: prodrug versus unprotected salt
K562 cells [4] = details: statement of the discussion, not tested here; ref not given; cited from earlier work
[5] = biological target: T1, full intracellular domain of BTN3A1 (Homo sapiens, UniProt O00481); test: Isothermal titration calorimetry; type: binding; details: for Binding to BTN3A1: purified BTN3A1, direct titration
T1 sequence (O00481 272-513 limits assumed): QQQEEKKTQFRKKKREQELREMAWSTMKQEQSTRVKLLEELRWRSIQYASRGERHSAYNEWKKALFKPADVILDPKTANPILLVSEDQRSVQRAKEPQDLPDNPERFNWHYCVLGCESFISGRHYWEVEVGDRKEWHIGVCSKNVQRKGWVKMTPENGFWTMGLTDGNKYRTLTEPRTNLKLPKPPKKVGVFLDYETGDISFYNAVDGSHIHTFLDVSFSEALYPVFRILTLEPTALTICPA

[6] = biological target: T1, full intracellular domain of BTN3A1; details: known Kd, ref not given; cited from earlier work
[7] = HPLC and HPLC-MS analysis in aqueous acetonitrile; type: physicochemical
Vγ9Vδ2 T cells [8] = details: expansion from peripheral blood; ref [10]; cited from earlier work
[9] = presence of 10-fold higher compound 8
[10] = presence of 100-fold molar excess of compound 8

EC50 (Vγ9Vδ2 T cells [3]; Homo sapiens, T-cell): > 100 µM
Structure (SMILES): CC(C)=CCCP(=O)(CP(=O)(OCOC(=O)C(C)(C)C)OCOC(=O)C(C)(C)C)OCOC(=O)C(C)(C)C (centres unmarked) [Compound 11, (((((4-Methylpent-3-en-1-yl)((pivaloyloxy)methoxy)phosphoryl)methyl)phosphoryl)bis(oxy))bis(methylene) bis(2,2-dimethylpropanoate)]
IC50 (T cells; Homo sapiens, T-cell): > 100 µM
Fold difference from salt, lysis (K562 cells [1]): >14x
Fold difference from HMBPP, direct K562 toxicity (K562 cells [2]; 72 hour treatment): >10x
Fold difference from salt, direct K562 toxicity (K562 cells [2]; 72 hour treatment): >10x
Agonist / biological activity (Vγ9Vδ2 T cells [3]): No measurable agonist activity
Fold difference from HMBPP (Vγ9Vδ2 T cells [3]; EC50 ratio): <0.0000051x

Structure (SMILES): C=C(C)CCOP(=O)(O)OP(=O)(O)O [IPP, isopentenyl diphosphate]
Direct toxicity (K562 cells [4]): not directly toxic

Structure (SMILES): O=P(O)(O)C(O)(Cc1cccnc1)P(=O)(O)O [risedronate]
Direct toxicity (K562 cells [4]): do exhibit direct toxicity

Structure (SMILES): COP(=O)(CC/C=C(\C)CO)CP(=O)(OC)OC (centres unmarked) [Compound 9, Dimethyl (E)-(((5-hydroxy-4-methylpent-3-en-1-yl)(methoxy)phosphoryl)methyl)phosphonate]
IC50 (T cells; toxicity in T cell expansion assay): > 100 µM
IC50 (K562 cells [2]; read-out: IC50, direct K562 toxicity, 72 hour treatment): > 100 µM
Binding to BTN3A1 [5]: neither binds to the protein
Agonist / biological activity (Vγ9Vδ2 T cells [3]): nor is biologically active
EC50 (Vγ9Vδ2 T cells [3]; PBMC exposed 72 hours, grown 11 days, flow cytometry): > 100 µM

Structure (SMILES): C/C(=C\CP(=O)(O)OP(=O)(O)O)CO [C-HMBPP, (E)-4-hydroxy-3-methyl-but-2-enyl phosphonophosphate]
Kd [6]: 1.9 µM

Structure (SMILES): C/C(=C\CCP(=O)(OCOC(=O)C(C)(C)C)OCOC(=O)C(C)(C)C)CO [Compound 2]
Direct toxicity (K562 cells [4]): not directly toxic

Binding to BTN3A1 [5]: did not bind
EC50 (Vγ9Vδ2 T cells [3]; Homo sapiens, T-cell): 0.041 µM
Stability in aqueous acetonitrile [7]: some minor isomerization
Structure (SMILES): C/C(=C\CCP(=O)(CP(=O)(OCOC(=O)C(C)(C)C)OCOC(=O)C(C)(C)C)OCOC(=O)C(C)(C)C)CO (centres unmarked) [Compound 4, (E)-(((((5-Hydroxy-4-methylpent-3-en-1-yl)((pivaloyloxy)methoxy)phosphoryl)methyl)phosphoryl)bis(oxy))bis(methylene) bis(2,2-dimethylpropanoate)]
Concentrations with toxicity towards the T cells (T cells; Figure 2B): ≥ 10 µM
Fold difference in cellular activity between compound 4 and 11 (K562 cells [1]): 26 fold
Fold difference from salt, lysis (K562 cells [1]): 150 x
Fold difference from salt, lysis (K562 cells [1]; listed as POM3-CC-HMBPP (4)): 146x
Fold difference from HMBPP, direct K562 toxicity (K562 cells [2]; 72 hour treatment): >29x
Fold difference from salt, direct K562 toxicity (K562 cells [2]; 72 hour treatment): >29x
Stimulation of Vγ9Vδ2 T cell proliferation (Vγ9Vδ2 T cells [3]): strongly stimulated proliferation
Fold difference from salt (Vγ9Vδ2 T cells [3]; EC50 ratio): 630 x
Fold difference from salt (Vγ9Vδ2 T cells [3]; EC50 ratio, listed as POM3-CC-HMBPP (4)): 630x (versus 10)

Structure (SMILES): CC(C)=CCCP(=O)([O-])CP(=O)([O-])[O-].[Na+].[Na+].[Na+] [Compound 8, Sodium (((4-methylpent-3-en-1-yl)oxidophosphoryl)methyl)phosphonate]
IC50 (T cells; Homo sapiens, T-cell): > 100 µM
EC50 (K562 cells [1]; Homo sapiens, K562, 2 h, read-out: EC50, lysis of K562 cells by T cells): > 100 µM
Competition with HMBPP binding ([5]; 10x and 100x compound 8): capable of disrupting HMBPP binding in a dose-dependent manner
Binding to BTN3A1 [5]: too low to be measured directly; also recorded: intermediate affinity
EC50 (Vγ9Vδ2 T cells [3]; Homo sapiens, T-cell): > 100 µM

Structure (SMILES): C/C(=C\CCP(=O)(O)O)CO [Compound 3]
EC50 (Vγ9Vδ2 T cells [8]): 4 µM

Structure (SMILES): C/C(=C\CCP(=O)([O-])CP(=O)([O-])[O-])CO.[Na+].[Na+].[Na+] [Compound 10, Sodium (E)-(((5-hydroxy-4-methylpent-3-en-1-yl)oxidophosphoryl)methyl)phosphonate]
IC50 (T cells; Homo sapiens, T-cell): > 100 µM
Binding to BTN3A1 [5]: intermediate affinity
EC50 (Vγ9Vδ2 T cells [3]; Homo sapiens, T-cell): 26 µM

Structure (SMILES): O=P(O)(O)C(O)(Cn1ccnc1)P(=O)(O)O [zoledronate]
Direct toxicity (K562 cells [4]): do exhibit direct toxicity

TΔS of HMBPP binding ([5]; absence of compound 8): -4.54 kcal/mol
ΔH of HMBPP binding ([5]; absence of compound 8): -12.4 kcal/mol
TΔS of HMBPP binding [5, 9]: -1.1 kcal/mol
ΔH of HMBPP binding [5, 9]: -9.32 kcal/mol
TΔS of HMBPP binding [5, 10]: +28 kJ/mol
ΔH of HMBPP binding [5, 10]: -1.65 kcal/mol
Structure (SMILES): C/C(=C\COP(=O)(O)OP(=O)(O)O)CO [HMBPP, (E)-4-hydroxy-3-methyl-but-2-enyl diphosphate, reference compound]
Hill slope, K562 lysis (K562 cells [1]; four parameter non-linear regression): 0.69
Direct toxicity (K562 cells [2]): not directly toxic
Stimulation of Vγ9Vδ2 T cell proliferation (Vγ9Vδ2 T cells [3]): strongly stimulated proliferation

From article PMC5754923 (Journal of medicinal chemistry, 2017)
